Assay results as given in PMC5228037, “Discovery and Mechanistic Characterization of Selective Inhibitors of H2S-producing Enzyme: 3-Mercaptopyruvate Sulfurtransferase (3MST) Targeting Active-site Cysteine Persulfide” (Scientific Reports, 2017).

Key:
[1] = target: T1, GST-fused m3MST (GST-3MST) (Mus musculus, UniProt Q99J99); experiment: 3MST inhibitor screening with H2S fluorescent probe HSip-1 (confirmation test, titration test); format: biochemical; details: HSip-1 fluorescence, room temperature 3 hr; for inhibition at 10 µM: 10 μM compound, 50 μM 3MP, 40 μM DTT, mean±S.D. n = 4; for IC50: 0.25, 1, 3, 10, 30 μM compound, 3MP and DTT, read-out: IC50 of 3MST inhibition (titration test)
T1 construct: made in house; host or cells: E. coli BL21
T1 sequence (Q99J99 1-297): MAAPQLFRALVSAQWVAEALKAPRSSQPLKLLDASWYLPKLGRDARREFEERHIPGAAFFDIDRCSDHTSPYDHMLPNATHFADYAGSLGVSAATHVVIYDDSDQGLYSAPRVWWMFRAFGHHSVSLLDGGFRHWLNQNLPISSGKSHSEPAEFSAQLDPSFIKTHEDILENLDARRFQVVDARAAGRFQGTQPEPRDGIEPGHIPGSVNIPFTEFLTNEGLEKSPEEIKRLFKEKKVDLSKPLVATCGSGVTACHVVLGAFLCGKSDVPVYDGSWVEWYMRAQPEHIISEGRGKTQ

[2] = Reactivity test toward 3MP and DTT (2nd screening, no enzyme); details: 50 μM 3MP, 40 μM DTT, no 3MST, mean±S.D. n = 4
Experimental: Reactivity of the hit compounds toward 3MP and DTT was examined. The final concentration of the compounds was 10 or 50 μM. The assay protocol was as follows: compounds were diluted with HSip-1 solution to 20 or 100 μM solution (10% DMSO) with a Multi-Drop Combi. Next, 3MP and DTT solution (10 μL, final concentrations: 50 μM 3MP and 40 μM DTT) was dispensed into the plates (total volume was 20 μL, 5% DMSO), and the plates were incubated at room temperature for 3 hr. The fluorescence of HSip-1 was measured (λex = 485 nm, λem = 520 nm) with a microplate reader (PHERAstar PLUS). Background control wells (i.e., no addition wells instead of addition of 3MP and DTT, n = 16) were also prepared for all plates.
Supplementary Note 3. […]
The second screening, which is a non-enzymatic assay, was performed to eliminate false-positive hit compounds such as naphthoquinone that react with the substrates, e.g., 3MP and DTT. Even in […]
μM 3MP and 40 μM DTT. The fluorescence increase in the presence or the absence of 3MP and DTT was regarded as 100% or 0% fluorescence signal, respectively, and we evaluated the ability of each compound (10 μM and 50 μM) to inhibit the fluorescence increase caused by the reaction with 3MP and DTT. In this assay, we selected compounds showing ‒25% ≤ inhibitory activity at both 10 and 50 μM ≤ 50% (545 compounds). Then, we further selected compounds showing more than 60% inhibitory activity in the previous confirmation test among 545 compounds (146 hit compounds) (Supplementary Fig. S7). These compounds were considered not to react with 3MP and DTT, at least in this concentration range. […]

inhibition at 10 µM [1] | IC50 [1] | No Enzyme: inhibition of HSip-1 fluorescence increase caused by 3MP and DTT ([2]; 10 μM compound) | No Enzyme: inhibition of HSip-1 fluorescence increase caused by 3MP and DTT ([2]; 50 μM compound) | SMILES
102 ± 2.9% | 2.7 µM | 7.4±5.5% | 6.3±4.5% | Cc1cc(=O)[nH]c(SCC(=O)c2cccc3ccccc23)n1 [compound 3]
102.8 ± 0.2% | 1.7 µM | 10.1±6.2% | 17.2±4.0% | NC(=O)c1ccsc1NC(=O)CSc1nc2ccccc2c(=O)[nH]1 [compound 1]
81.7 ± 2.5% | 6.3 µM | 7.4±10.6% | -23.6±17.1% | Cc1sc2nc(SCC(=O)c3ccc(O)cc3O)[nH]c(=O)c2c1C [compound 2]
95.5 ± 3.4% | 5.7 µM | 11.4±4.9% | 10.5±4.5% | O=C(O)c1cccc(NS(=O)(=O)c2ccccc2)c1 [compound 5]
